This note sets out measurements from patent US20080280952A1 (priority 2004, published 2008).

For this assay, the target named is T1, human cannabinoid CB2 receptor (Homo sapiens, UniProt P34972).
T1 construct: expressed in transfected cells; host or cells: Saccharomyces cerevisiae strain MMY23 (cassette integrated at the ura3 locus, GPD promoter)
Put plainly: Cannabinoid CB2 receptor agonist activity, yeast reporter assay. The assay is classed as cell-based. Conditions: for Emax: read-out: efficacy (Emax) at the cloned human cannabinoid CB2 receptor. The procedure:
The cannabinoid CB2 receptor agonist activity of the compounds of formula (I) was determined in accordance with the following experimental method.
Yeast (Saccharomyces cerevisiae) cells expressing the human cannabinoid CB2 receptor were generated by integration of an expression cassette into the ura3 chromosomal locus of yeast strain MMY23. This cassette consisted of DNA sequence encoding the human CB2 receptor flanked by the yeast GPD promoter to the 5′ end of CB2 and a yeast transcriptional terminator sequence to the 3′ end of CB2. MMY23 expresses a yeast/mammalian chimeric G-protein alpha subunit in which the C-terminal 5 amino acids of Gpa1 are replaced with the C-terminal 5 amino acids of human Gαi3 (as described in Brown et al. (2000), Yeast 16:11-22).
Agonists were prepared as 10 mM stocks in DMSO. […] Agonist solutions in DMSO (1% final assay volume) were transferred into black, clear bottom, microtitre plates from NUNC (96- or 384-well). Cells were suspended at a density of 0.2 OD600/ml in SC media lacking histidine, uracil, tryptophan, adenine and leucine and supplemented with 10 mM 3-aminotriazole, 0.1M sodium phosphate pH 7.0, and […] fluorescein di-β-D-glucopyranoside (FDGlu). […] Fluorescence was plotted against compound concentration and iteratively curve fitted using a four parameter fit to generate a concentration effect value. Efficacy (Emax) was calculated from the equation
Equieffective molar ratio (EMR) values were calculated from the equation
(In general: A reporter such as luciferase makes a cellular process visible.)

SMILES strings stand for the structures.

A word on the EC50: it is the concentration that produces a half-maximal response. Read a low EC50 as higher potency in that assay. What is called Emax is the maximal effect, on the per cent scale that the assay sets.

T1 sequence (P34972 whole entry): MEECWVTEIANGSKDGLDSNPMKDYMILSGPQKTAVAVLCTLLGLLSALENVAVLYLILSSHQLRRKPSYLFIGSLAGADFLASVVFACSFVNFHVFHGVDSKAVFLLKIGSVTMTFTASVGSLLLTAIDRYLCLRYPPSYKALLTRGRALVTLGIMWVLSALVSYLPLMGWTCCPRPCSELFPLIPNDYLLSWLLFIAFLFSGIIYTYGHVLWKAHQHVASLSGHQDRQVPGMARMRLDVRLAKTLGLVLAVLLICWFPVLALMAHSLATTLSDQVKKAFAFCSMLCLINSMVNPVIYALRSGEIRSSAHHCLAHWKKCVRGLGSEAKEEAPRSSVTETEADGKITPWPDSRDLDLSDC

As to `O=C(NCC1CCOCC1)c1cnc(Nc2cccc(F)c2)cc1C1CCCC1` [Example 15, 4-Cyclopentyl-6-(3-fluoro-phenylamino)-N-(tetrahydro-pyran-4-ylmethyl)-nicotinamide], the concentration giving a half-maximal response (EC50) was in the range of 300 to 1000 nM and the maximal effect (Emax) was over 50%.

Consider `N#Cc1cccc(Nc2cc(C3CCCC3)c(C(=O)NCC3CCOCC3)cn2)c1` [Example 16, 6-(3-Cyano-phenylamino)-4-cyclopentyl-N-(tetrahydro-pyran-4-ylmethyl)-nicotinamide], for which the EC50 fell in the range of 300 to 1000 nM and the maximal effect (Emax) is over 50%.

Turning to `Cc1cccc(Nc2cc(C3CCCC3)c(C(=O)NCC3CCOCC3)cn2)c1` [Example 17, Methanesulphonic acid,compound with 4-cyclopentyl-N-(tetrahydro-pyran-4-ylmethyl)-6-m-tolylamino-nicotinamide], the 50% effective concentration (EC50) was in the range of 300 to 1000 nM and the Emax was over 50%.

Turning to `O=C(NCC1CCOCC1)c1cnc(Nc2cccc(C(F)(F)F)c2F)cc1C1CC1` [Example 20, 4-Cyclopropyl-6-(2-fluoro-3-trifluoromethyl-phenylamino)-N-(tetrahydro-pyran-4-ylmethyl)-nicotinamide], the half-maximal effective concentration (EC50) lay in the range of 300 to 1000 nM and the maximal response (Emax) is over 50%.

As to `O=C(NCC1CCOCC1)c1cnc(Nc2ccc(F)c(Cl)c2)cc1C1CC1` [Example 21, 6-(3-Chloro-4-fluoro-phenylamino)-4-cyclopropyl-N-(tetrahydro-pyran-4-ylmethyl)-nicotinamide], the 50% effective concentration (EC50) lay in the range of 300 to 1000 nM and the maximal effect (Emax) was over 50%.

With `O=C(NCC1CCOCC1)c1cnc(Nc2ccc(F)cc2Cl)cc1C1CCCC1` [Example 22, 6-(2-Chloro-4-fluoro-phenylamino)-4-cyclopentyl-N-(tetrahydro-pyran-4-ylmethyl)-nicotinamide], the EC50 fell in the range of 300 to 1000 nM and the Emax was over 50%.

As for `Cc1cc(Cl)ccc1Nc1cc(C2CCCC2)c(C(=O)NCC2CCOCC2)cn1` [Example 23, 6-(4-Chloro-2-methyl-phenylamino)-4-cyclopentyl-N-(tetrahydro-pyran-4-ylmethyl)-nicotinamide], the EC50 fell in the range of 300 to 1000 nM and the Emax was over 50%.

Regarding `O=C(NCC1CCOCC1)c1cnc(Nc2ccc(Cl)cc2F)cc1C1CCCC1` [Example 24, 6-(4-Chloro-2-fluoro-phenylamino)-4-cyclopentyl-N-(tetrahydro-pyran-4-ylmethyl)-nicotinamide], the EC50 was in the range of 300 to 1000 nM and the maximal effect (Emax) was over 50%.

Turning to `O=C(NCC1CCOCC1)c1cnc(Nc2cccc(Cl)c2Cl)cc1C1CCCC1` [Example 25, 4-Cyclopentyl-6-(2,3-dichloro-phenylamino)-N-(tetrahydro-pyran-4-ylmethyl)-nicotinamide], the EC50 was in the range of 300 to 1000 nM and the Emax is over 50%.

On to `COc1cccc(Nc2cc(C3CCCC3)c(C(=O)NCC3CCOCC3)cn2)c1` [Example 26, 4-Cyclopentyl-6-(3-methoxy-phenylamino)-N-(tetrahydro-pyran-4-ylmethyl)-nicotinamide], for which the EC50 fell in the range of 300 to 1000 nM and the Emax is over 50%.

Take `N#Cc1ccc(Nc2cc(C3CCCC3)c(C(=O)NCC3CCOCC3)cn2)cc1` [Example 27, 6-(4-Cyano-phenylamino)-4-cyclopentyl-N-(tetrahydro-pyran-4-ylmethyl)-nicotinamide]: the half-maximal effective concentration (EC50) fell in the range of 300 to 1000 nM and the Emax is over 50%.

As for `O=C(NCC1CCOCC1)c1cnc(Nc2ccc(Br)c(Cl)c2)cc1C1CC1` [Example 91, 6-(4-Bromo-3-chloro-phenylamino)-4-cyclopropyl-N-(tetrahydro-pyran-4-ylmethyl)-nicotinamide], the 50% effective concentration (EC50) was 300 to 1000 nM and the maximum response (Emax) is over 50%.

Turning to `O=C(NCC1CCOCC1)c1cnc(Nc2ccc(C(F)(F)F)c(F)c2)cc1C1CC1` [Example 92, 4-Cyclopropyl-6-(3-fluoro-4-trifluoromethyl-phenylamino)-N-(tetrahydro-pyran-4-ylmethyl)-nicotinamide], the concentration for a half-maximal effect (EC50) was in the range of 300 to 1000 nM and the maximal response (Emax) was over 50%.

As to `O=C(NCC1CCOCC1)c1cnc(Nc2ccc(F)c(C(F)(F)F)c2)cc1C1CC1` [Example 93, 4-Cyclopropyl-6-(4-fluoro-3-trifluoromethyl-phenylamino)-N-(tetrahydro-pyran-4-ylmethyl)-nicotinamide], the EC50 was 300 to 1000 nM and the Emax is over 50%.

Consider `O=C(NCC1CCOCC1)c1cnc(Nc2ccc(Br)cc2F)cc1C1CC1` [Example 94, 6-(4-Bromo-2-fluoro-phenylamino)-4-cyclopropyl-N-(tetrahydro-pyran-4-ylmethyl)-nicotinamide], for which the EC50 lay in the range of 300 to 1000 nM and the Emax was over 50%.

For the compound `Cc1cc(Cl)ccc1Nc1cc(C2CC2)c(C(=O)NCC2CCOCC2)cn1` [Example 95, 6-(4-Chloro-2-methyl-phenylamino)-4-cyclopropyl-N-(tetrahydro-pyran-4-ylmethyl)-nicotinamide], the EC50 was in the range of 300 to 1000 nM and the maximal effect (Emax) is over 50%.

Regarding `O=C(NCC1CCOCC1)c1cnc(Nc2ccc(OC(F)(F)F)cc2Br)cc1C1CC1` [Example 96, 6-(2-Bromo-4-trifluoromethoxy-phenylamino)-4-cyclopropyl-N-(tetrahydro-pyran-4-ylmethyl)-nicotinamide], the 50% effective concentration (EC50) was in the range of 300 to 1000 nM and the Emax is over 50%.

As to `O=C(NCC1CCOCC1)c1cnc(Nc2ccc(Br)c(F)c2)cc1C1CC1` [Example 97, 6-(4-Bromo-3-fluoro-phenylamino)-4-cyclopropyl-N-(tetrahydro-pyran-4-ylmethyl)-nicotinamide], the 50% effective concentration (EC50) was in the range of 300 to 1000 nM and the maximal effect (Emax) is over 50%.

For `O=C(NCC1CCOCC1)c1cnc(Nc2ccc(Cl)cc2F)cc1C1CC1` [Example 98, 6-(4-Chloro-2-fluoro-phenylamino)-4-cyclopropyl-N-(tetrahydro-pyran-4-ylmethyl)-nicotinamide], the concentration giving a half-maximal response (EC50) was in the range of 300 to 1000 nM and the maximal effect (Emax) was over 50%.

On to `O=C(NCC1CCCC1)c1cnc(Nc2ccc(F)cc2F)cc1C1CC1` [Example 99, N-Cyclopentylmethyl-4-cyclopropyl-6-(2,4-difluoro-phenylamino)-nicotinamide], for which the EC50 fell in the range of 300 to 1000 nM and the maximum response (Emax) is over 50%.

For `O=C(NCC1CCOCC1)c1cnc(Nc2cc(Cl)ccc2F)cc1C1CC1` [Example 101, 6-(5-Chloro-2-fluoro-phenylamino)-4-cyclopropyl-N-(tetrahydro-pyran-4-ylmethyl)-nicotinamide], the concentration giving a half-maximal response (EC50) is 300 to 1000 nM and the Emax was over 50%.

Turning to `O=C(NCC1CCOCC1)c1cnc(Nc2cc(C(F)(F)F)ccc2F)cc1C1CC1` [Example 102, 4-Cyclopropyl-6-(2-fluoro-5-trifluoromethyl-phenylamino)-N-(tetrahydro-pyran-4-ylmethyl)-nicotinamide], the EC50 lay within 300 to 1000 nM and the Emax is over 50%.

Regarding `O=C(NCC1CCOCC1)c1cnc(Nc2cc(C(F)(F)F)ccc2Cl)cc1C1CC1` [Example 103, 6-(2-Chloro-5-trifluoromethyl-phenylamino)-4-cyclopropyl-N-(tetrahydro-pyran-4-ylmethyl)-nicotinamide], the EC50 lay in the range of 300 to 1000 nM and the maximum response (Emax) is over 50%.

With `O=C(NCC1CCOCC1)c1cnc(Nc2cc(C(F)(F)F)ccc2Br)cc1C1CC1` [Example 104, 6-(2-Bromo-5-trifluoromethyl-phenylamino)-4-cyclopropyl-N-(tetrahydro-pyran-4-ylmethyl)-nicotinamide], the EC50 is 300 to 1000 nM and the Emax was over 50%.

On to `Cc1ccc(Cl)cc1Nc1cc(C2CC2)c(C(=O)NCC2CCOCC2)cn1` [Example 105, 6-(5-Chloro-2-methyl-phenylamino)-4-cyclopropyl-N-(tetrahydro-pyran-4-ylmethyl)-nicotinamide], for which the EC50 was in the range of 300 to 1000 nM and the Emax was over 50%.

With `Cc1cc(C#N)ccc1Nc1cc(C2CC2)c(C(=O)NCC2CCOCC2)cn1` [Example 106, 6-(4-Cyano-2-methyl-phenylamino)-4-cyclopropyl-N-(tetrahydro-pyran-4-ylmethyl)-nicotinamide], the EC50 lay in the range of 300 to 1000 nM and the Emax is over 50%.

As for `Cc1c(Nc2cc(C3CC3)c(C(=O)NCC3CCOCC3)cn2)cccc1C(F)(F)F` [Example 107, 4-Cyclopropyl-6-(2-methyl-3-trifluoromethyl-phenylamino)-N-(tetrahydro-pyran-4-ylmethyl)-nicotinamide], the EC50 lay in the range of 300 to 1000 nM and the maximal effect (Emax) was over 50%.

Regarding `O=C(NCC1CCOCC1)c1cnc(Nc2cc(F)ccc2Cl)cc1C1CC1` [Example 108, 6-(2-Chloro-5-fluoro-phenylamino)-4-cyclopropyl-N-(tetrahydro-pyran-4-ylmethyl)-nicotinamide], the EC50 was 300 to 1000 nM and the Emax is over 50%.

As for `Cc1cccc(Nc2cc(C3CC3)c(C(=O)NCC3CCOCC3)cn2)c1C#N` [Example 109, 6-(2-Cyano-3-methyl-phenylamino)-4-cyclopropyl-N-(tetrahydro-pyran-4-ylmethyl)-nicotinamide], the EC50 fell in the range of 300 to 1000 nM and the Emax was over 50%.
